Consider 13 molecules from PubChem BioAssay (NCI).

Test systems include UACC-257 melanoma; HT29 colon; COLO 205 colon; SK-MEL-5 melanoma; SK-MEL-2 melanoma; RPMI-8226 leukemia; SK-OV-3 ovarian; UACC-62 melanoma; NCI-H460 lung; HCT-116 colon.
What all share (assay): inhibition of tumour cell growth, NCI panel, 48 h

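Where inhibition never reached the appropriate level, the endpoint shown equals the highest concentration tested. Otherwise, values were interpolated linearly from a five-concentration, 48-hour dose response in 96-well plates. Here, GI50 denotes the concentration required for 50% inhibition of growth. TGI is the concentration that stops growth completely.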

Take `COc1ccc2c(c1)CCCN2CCCCCCCCCCN(CCC(C)C)CCC(C)C`: the TGI with UACC-257 melanoma was determined as 32.5 µM; in the assay on HT29 colon it was 18 µM; with COLO 205 colon, 26.6 µM; with SK-MEL-5 melanoma, 18.9 µM; with SK-MEL-2 melanoma it was 22.8 µM; with RPMI-8226 leukemia, 6.18 µM. Further, the TGI with SK-OV-3 ovarian was determined as 40.9 µM; in the assay on UACC-62 melanoma it was 27.1 µM; with NCI-H460 lung, 24.3 µM.

With `COc1ccc2c(C(=O)c3cn(CCN4CCOCC4)c4ccccc34)cccc2c1`, the TGI was > 100 µM in the assay on HCT-116 colon; > 100 µM in the assay on UACC-257 melanoma; > 100 µM with HT29 colon; > 92 µM in the assay on COLO 205 colon; > 100 µM with SK-MEL-5 melanoma; > 100 µM in the assay with SK-MEL-2 melanoma. For the same molecule, the TGI with RPMI-8226 leukemia, in the assay with SK-OV-3 ovarian, with UACC-62 melanoma and with NCI-H460 lung was > 100 µM throughout.

With `C[C@H]1C(=O)O[C@@H]2CCN3CC=C(COC(=O)[C@](C)(O)[C@@]1(C)O)[C@H]23`, the TGI in the assay on HCT-116 colon, with UACC-257 melanoma, in the assay on HT29 colon, in the assay on COLO 205 colon, in the assay on SK-MEL-5 melanoma and with SK-MEL-2 melanoma was > 100 µM throughout. For the same molecule, the TGI with RPMI-8226 leukemia, in the assay with SK-OV-3 ovarian and with UACC-62 melanoma was > 100 µM throughout.

As to `CC(=O)NNc1nc(-c2ccc([N+](=O)[O-])cc2)c(C#N)c(=O)n1C`, the TGI is 94.2 µM in the assay on HCT-116 colon; > 100 µM in the assay on UACC-257 melanoma; > 100 µM in the assay on HT29 colon; > 100 µM with COLO 205 colon; > 100 µM with SK-MEL-5 melanoma; > 100 µM in the assay with SK-MEL-2 melanoma. Further, the TGI in the assay on RPMI-8226 leukemia, in the assay with SK-OV-3 ovarian, in the assay with UACC-62 melanoma and in the assay with NCI-H460 lung was > 100 µM in each case.

For the molecule `CN(C)CCNC(=O)c1cccc2ccc(-c3ccc(F)cc3)nc12`, the TGI was found to be 13.3 µM in the assay on HCT-116 colon; 17.9 µM with UACC-257 melanoma; 17 µM with HT29 colon; 10.9 µM with COLO 205 colon; 11.1 µM with SK-MEL-5 melanoma; 21.3 µM in the assay with SK-MEL-2 melanoma. Further, the TGI in the assay with RPMI-8226 leukemia was 13.5 µM; in the assay on SK-OV-3 ovarian, 24.8 µM; in the assay on UACC-62 melanoma it was 13.4 µM; with NCI-H460 lung it was 10.5 µM.

Take `Nc1ccccc1N=Cc1cc2cc([N+](=O)[O-])ccc2s1`: the TGI is > 100 µM in the assay on HCT-116 colon; 51.2 µM in the assay with UACC-257 melanoma; > 100 µM with HT29 colon; 45.5 µM in the assay with COLO 205 colon; > 100 µM in the assay on SK-MEL-5 melanoma; 37.3 µM with SK-MEL-2 melanoma. Moreover, the TGI with RPMI-8226 leukemia worked out at 46.8 µM; in the assay on SK-OV-3 ovarian, 29.7 µM; in the assay on UACC-62 melanoma it was 38.1 µM; with NCI-H460 lung it was 47.5 µM.

As to `COc1ccc(C2=C3SC=c4ccccc4=C3ON=C2c2ccccc2)cc1`, the TGI with HCT-116 colon, in the assay on UACC-257 melanoma, with HT29 colon, in the assay with COLO 205 colon, with SK-MEL-5 melanoma and with SK-MEL-2 melanoma was > 100 µM throughout. In addition, the TGI in the assay with RPMI-8226 leukemia, with UACC-62 melanoma and with NCI-H460 lung was > 100 µM in each case.

As to `N=C1C(=N)c2ccccc2-c2ccccc21.N=C1C(=N)c2ccccc2-c2ccccc21.N=C1C(=N)c2ccccc2-c2ccccc21.[Cl-].[Ru+2]`, the TGI in the assay on HCT-116 colon was 3.2 µM; with UACC-257 melanoma it was 3.53 µM; in the assay with HT29 colon, > 31.6 µM; in the assay with COLO 205 colon, 6.87 µM; with SK-MEL-5 melanoma, 3.71 µM; in the assay on RPMI-8226 leukemia, 5.4 µM. In addition, the TGI was 6.91 µM with SK-OV-3 ovarian, 3.5 µM in the assay with UACC-62 melanoma and 6.29 µM with NCI-H460 lung. For the same molecule, the GI50 in the assay on SK-MEL-5 melanoma is 1.91 µM.

Turning to `Nc1n[nH]c(=O)c2c1c(I)cn2C1OC(CO)C(O)C1O` (configuration not stated), the TGI with HCT-116 colon is > 100 µM; with UACC-257 melanoma, 13.4 µM; in the assay with HT29 colon, 67.8 µM; in the assay with COLO 205 colon, 7.81 µM; with SK-MEL-5 melanoma, 13.6 µM; with SK-MEL-2 melanoma, 0.049 µM. Also, the TGI with RPMI-8226 leukemia is 4.53 µM; with SK-OV-3 ovarian it was > 100 µM; in the assay with UACC-62 melanoma, 13.3 µM; in the assay with NCI-H460 lung, 14.1 µM.

On to `NCCc1cc(O)c(O)cc1O`, for which the TGI with HCT-116 colon was 53.3 µM; in the assay with UACC-257 melanoma, 62.1 µM; in the assay on HT29 colon, 67.6 µM; with COLO 205 colon, > 72.9 µM; in the assay with SK-MEL-5 melanoma it was 38.6 µM; in the assay on SK-MEL-2 melanoma it was 71.7 µM. Moreover, the TGI is 39.3 µM in the assay with RPMI-8226 leukemia, > 84.1 µM in the assay with SK-OV-3 ovarian, 74.9 µM in the assay with UACC-62 melanoma and 80.4 µM in the assay on NCI-H460 lung.

For the molecule `O=C1NI(C#Cc2ccccc2)c2ccccc21`, the TGI with HCT-116 colon, with UACC-257 melanoma, in the assay with HT29 colon, with COLO 205 colon, in the assay with SK-MEL-5 melanoma and with SK-MEL-2 melanoma was > 100 µM each time. For the same molecule, the TGI is > 100 µM in the assay on RPMI-8226 leukemia, 95.1 µM with SK-OV-3 ovarian, > 100 µM with UACC-62 melanoma and > 100 µM with NCI-H460 lung.

As for `COc1cc(/C=C/C(=O)Oc2ccc(NC(C)=O)cc2)ccc1C(=O)O/C=C/c1ccccc1`, the TGI in the assay with HCT-116 colon, with UACC-257 melanoma, in the assay with HT29 colon, in the assay on COLO 205 colon, in the assay on SK-MEL-5 melanoma and with SK-MEL-2 melanoma was > 100 µM each time. In addition, the TGI in the assay on RPMI-8226 leukemia, in the assay on SK-OV-3 ovarian, with UACC-62 melanoma and in the assay with NCI-H460 lung was > 100 µM each time.

Consider `CN(C)CCCn1cnc2cc(Cl)c(Cl)cc21`, for which the TGI with HCT-116 colon is > 100 µM; with UACC-257 melanoma, 40.7 µM; with HT29 colon, > 100 µM; with COLO 205 colon, > 100 µM; in the assay on SK-MEL-5 melanoma, > 100 µM; with SK-MEL-2 melanoma it was > 100 µM. Further, the TGI was > 100 µM in the assay on RPMI-8226 leukemia, > 100 µM in the assay with SK-OV-3 ovarian, 82.2 µM with UACC-62 melanoma and > 100 µM with NCI-H460 lung.
